Test results as given in the NIST ThermoML archive (doi:10.1016/j.jct.2019.01.021).
Several values for one entry are separate records, joined by “and”; a condition that tells them apart may be missing. Equal entries are not always repeated.

Test: molar heat capacity at constant pressure
Conditions: 101.33 kPa, Small (less than 1 g) adiabatic calorimetry

N.NS(=O)(=O)O [ammonium sulfamate]
Conditions | molar heat capacity at constant pressure
187.31 K, Crystal 2 | 118.02 J/K/mol
188.37 K, Crystal 2 | 118.34 J/K/mol
189.42 K, Crystal 2 | 118.66 J/K/mol
190 K, Crystal 2 | 119.06 J/K/mol
190.47 K, Crystal 2 | 118.99 J/K/mol
191.52 K, Crystal 2 | 119.43 J/K/mol
192.57 K, Crystal 2 | 119.89 J/K/mol
193.62 K, Crystal 2 | 120.26 J/K/mol
194.67 K, Crystal 2 | 120.69 J/K/mol
195.72 K, Crystal 2 | 121.06 J/K/mol
196.77 K, Crystal 2 | 121.57 J/K/mol
197.82 K, Crystal 2 | 122.07 J/K/mol
198.87 K, Crystal 2 | 122.46 J/K/mol
199.92 K, Crystal 2 | 122.56 J/K/mol
200 K, Crystal 2 | 122.64 J/K/mol
200.85 K, Crystal 2 | 122.86 J/K/mol
201.65 K, Crystal 2 | 123.16 J/K/mol
202.45 K, Crystal 2 | 123.44 J/K/mol
203.24 K, Crystal 2 | 123.74 J/K/mol
204.05 K, Crystal 2 | 123.89 J/K/mol
204.85 K, Crystal 2 | 124.1 J/K/mol
205.65 K, Crystal 2 | 124.38 J/K/mol
206.45 K, Crystal 2 | 124.7 J/K/mol
207.25 K, Crystal 2 | 124.92 J/K/mol
208.05 K, Crystal 2 | 125.1 J/K/mol
208.86 K, Crystal 2 | 125.38 J/K/mol
209.66 K, Crystal 2 | 125.69 J/K/mol
210 K, Crystal 2 | 125.96 J/K/mol
210.46 K, Crystal 2 | 125.83 J/K/mol
211.26 K, Crystal 2 | 126.04 J/K/mol
212.07 K, Crystal 2 | 126.32 J/K/mol
212.87 K, Crystal 2 | 126.64 J/K/mol
213.68 K, Crystal 2 | 127 J/K/mol
214.48 K, Crystal 2 | 127.38 J/K/mol
215.28 K, Crystal 2 | 127.75 J/K/mol
216.09 K, Crystal 2 | 127.78 J/K/mol
216.9 K, Crystal 2 | 127.98 J/K/mol
217.7 K, Crystal 2 | 128.19 J/K/mol
218.51 K, Crystal 2 | 128.52 J/K/mol
219.31 K, Crystal 2 | 128.78 J/K/mol
220 K, Crystal 2 | 129.21 J/K/mol
220.12 K, Crystal 2 | 129.04 J/K/mol
220.93 K, Crystal 2 | 129.3 J/K/mol
221.73 K, Crystal 2 | 129.49 J/K/mol
222.54 K, Crystal 2 | 129.74 J/K/mol
223.35 K, Crystal 2 | 130.02 J/K/mol
224.16 K, Crystal 2 | 130.26 J/K/mol
224.97 K, Crystal 2 | 130.53 J/K/mol
225.78 K, Crystal 2 | 130.71 J/K/mol
226.59 K, Crystal 2 | 130.98 J/K/mol
227.4 K, Crystal 2 | 131.32 J/K/mol
228.21 K, Crystal 2 | 131.61 J/K/mol
229.02 K, Crystal 2 | 131.83 J/K/mol
229.83 K, Crystal 2 | 132.08 J/K/mol
230 K, Crystal 2 | 132.37 J/K/mol
230.64 K, Crystal 2 | 132.31 J/K/mol
231.45 K, Crystal 2 | 132.78 J/K/mol
232.27 K, Crystal 2 | 133.46 J/K/mol
233.08 K, Crystal 2 | 133.22 J/K/mol
233.89 K, Crystal 2 | 133.51 J/K/mol
234.71 K, Crystal 2 | 133.83 J/K/mol
235.52 K, Crystal 2 | 134.25 J/K/mol
236.33 K, Crystal 2 | 134.61 J/K/mol
237.15 K, Crystal 2 | 134.97 J/K/mol
237.96 K, Crystal 2 | 135.18 J/K/mol
238.78 K, Crystal 2 | 135.77 J/K/mol
239.59 K, Crystal 2 | 135.43 J/K/mol
240 K, Crystal 2 | 135.44 J/K/mol
240.41 K, Crystal 2 | 136.44 J/K/mol
241.22 K, Crystal 2 | 136.59 J/K/mol
242.04 K, Crystal 2 | 136.32 J/K/mol
242.86 K, Crystal 2 | 137.27 J/K/mol
243.68 K, Crystal 2 | 137.4 J/K/mol
244.44 K, Crystal 2 | 137.03 J/K/mol
244.5 K, Crystal 2 | 136.97 J/K/mol
244.81 K, Crystal 2 | 137.21 J/K/mol
244.94 K, Crystal 2 | 137.26 J/K/mol
245.31 K, Crystal 2 | 136.68 J/K/mol
245.38 K, Crystal 2 | 137.26 J/K/mol
245.44 K, Crystal 2 | 137.55 J/K/mol
245.94 K, Crystal 2 | 137.54 J/K/mol
245.96 K, Crystal 2 | 137.42 J/K/mol
246.13 K, Crystal 2 | 137.45 J/K/mol
246.46 K, Crystal 2 | 137.69 J/K/mol
246.53 K, Crystal 2 | 137.6 J/K/mol
246.95 K, Crystal 2 | 137.65 J/K/mol
246.96 K, Crystal 2 | 137.71 J/K/mol
247.11 K, Crystal 2 | 137.65 J/K/mol
247.46 K, Crystal 2 | 137.8 J/K/mol
247.68 K, Crystal 2 | 138 J/K/mol
247.77 K, Crystal 2 | 137.93 J/K/mol
247.97 K, Crystal 2 | 138.06 J/K/mol
248.25 K, Crystal 2 | 138.01 J/K/mol
248.47 K, Crystal 2 | 138.27 J/K/mol
248.59 K, Crystal 2 | 138.16 J/K/mol
248.83 K, Crystal 2 | 138.31 J/K/mol
248.98 K, Crystal 2 | 138.36 J/K/mol
249.41 K, Crystal 2 | 138.87 J/K/mol
249.42 K, Crystal 2 | 138.7 J/K/mol
249.48 K, Crystal 2 | 138.72 J/K/mol
249.98 K, Crystal 2 | 139.15 J/K/mol and 138.93 J/K/mol
250.24 K, Crystal 2 | 139.23 J/K/mol
250.49 K, Crystal 2 | 139.26 J/K/mol
250.56 K, Crystal 2 | 139.43 J/K/mol
250.99 K, Crystal 2 | 139.62 J/K/mol
251.06 K, Crystal 2 | 139.79 J/K/mol
251.14 K, Crystal 2 | 139.9 J/K/mol
251.5 K, Crystal 2 | 140.25 J/K/mol
251.71 K, Crystal 2 | 140.3 J/K/mol
251.88 K, Crystal 2 | 140.46 J/K/mol
252 K, Crystal 2 | 140.41 J/K/mol
252.28 K, Crystal 2 | 140.89 J/K/mol
252.51 K, Crystal 2 | 140.56 J/K/mol
252.7 K, Crystal 2 | 140.98 J/K/mol
252.86 K, Crystal 2 | 141.23 J/K/mol
253.02 K, Crystal 2 | 141.02 J/K/mol
253.43 K, Crystal 2 | 141.89 J/K/mol
253.52 K, Crystal 2 | 141.72 J/K/mol and 141.4 J/K/mol
254.01 K, Crystal 2 | 143.16 J/K/mol
254.03 K, Crystal 2 | 142.77 J/K/mol
254.34 K, Crystal 2 | 145.58 J/K/mol
254.54 K, Crystal 1 | 146.89 J/K/mol
254.58 K, Crystal 1 | 148.65 J/K/mol
255.05 K, Crystal 1 | 140.26 J/K/mol
255.16 K, Crystal 1 | 140.01 J/K/mol
255.17 K, Crystal 1 | 141.54 J/K/mol
255.56 K, Crystal 1 | 139.82 J/K/mol
255.74 K, Crystal 1 | 139.92 J/K/mol
256 K, Crystal 1 | 139.89 J/K/mol
256.07 K, Crystal 1 | 140.15 J/K/mol
256.32 K, Crystal 1 | 140.33 J/K/mol
256.58 K, Crystal 1 | 140.36 J/K/mol
256.83 K, Crystal 1 | 140.15 J/K/mol
256.9 K, Crystal 1 | 140.4 J/K/mol
257.09 K, Crystal 1 | 140.26 J/K/mol
257.48 K, Crystal 1 | 140.61 J/K/mol
257.6 K, Crystal 1 | 140.56 J/K/mol
257.65 K, Crystal 1 | 140.39 J/K/mol
258.06 K, Crystal 1 | 140.66 J/K/mol
258.1 K, Crystal 1 | 140.61 J/K/mol
258.48 K, Crystal 1 | 140.51 J/K/mol
258.61 K, Crystal 1 | 140.63 J/K/mol
258.65 K, Crystal 1 | 140.92 J/K/mol
259.12 K, Crystal 1 | 140.78 J/K/mol
259.23 K, Crystal 1 | 140.91 J/K/mol
259.3 K, Crystal 1 | 140.91 J/K/mol
259.63 K, Crystal 1 | 141.01 J/K/mol
259.81 K, Crystal 1 | 141.1 J/K/mol
260 K, Crystal 1 | 141.26 J/K/mol
260.12 K, Crystal 1 | 141.07 J/K/mol
260.15 K, Crystal 1 | 141.06 J/K/mol
260.39 K, Crystal 1 | 141.17 J/K/mol
260.66 K, Crystal 1 | 141.25 J/K/mol
260.95 K, Crystal 1 | 141.34 J/K/mol
260.97 K, Crystal 1 | 141.54 J/K/mol
261.17 K, Crystal 1 | 141.38 J/K/mol
261.55 K, Crystal 1 | 141.5 J/K/mol
261.68 K, Crystal 1 | 141.47 J/K/mol
261.77 K, Crystal 1 | 141.54 J/K/mol
262.13 K, Crystal 1 | 141.71 J/K/mol
262.19 K, Crystal 1 | 141.78 J/K/mol
262.61 K, Crystal 1 | 141.89 J/K/mol
262.71 K, Crystal 1 | 141.89 J/K/mol
262.73 K, Crystal 1 | 141.96 J/K/mol
263.3 K, Crystal 1 | 141.95 J/K/mol
263.44 K, Crystal 1 | 142.09 J/K/mol
264.27 K, Crystal 1 | 142.38 J/K/mol
265.1 K, Crystal 1 | 142.55 J/K/mol
265.93 K, Crystal 1 | 142.78 J/K/mol
266.76 K, Crystal 1 | 143.13 J/K/mol
267.59 K, Crystal 1 | 143.22 J/K/mol
268.42 K, Crystal 1 | 143.39 J/K/mol
269.25 K, Crystal 1 | 143.62 J/K/mol
270 K, Crystal 1 | 144.09 J/K/mol
270.08 K, Crystal 1 | 143.91 J/K/mol
270.91 K, Crystal 1 | 144.17 J/K/mol
271.74 K, Crystal 1 | 144.43 J/K/mol
272.58 K, Crystal 1 | 144.63 J/K/mol
273.41 K, Crystal 1 | 144.84 J/K/mol
274.25 K, Crystal 1 | 145.06 J/K/mol
275.08 K, Crystal 1 | 145.36 J/K/mol
275.94 K, Crystal 1 | 145.56 J/K/mol
276.77 K, Crystal 1 | 145.78 J/K/mol
277.6 K, Crystal 1 | 145.99 J/K/mol
278.44 K, Crystal 1 | 146.2 J/K/mol
279.28 K, Crystal 1 | 146.42 J/K/mol
280 K, Crystal 1 | 146.75 J/K/mol
280.11 K, Crystal 1 | 146.67 J/K/mol
280.95 K, Crystal 1 | 147.01 J/K/mol
281.79 K, Crystal 1 | 147.27 J/K/mol
282.63 K, Crystal 1 | 147.37 J/K/mol
283.47 K, Crystal 1 | 147.57 J/K/mol
284.3 K, Crystal 1 | 147.9 J/K/mol
285.15 K, Crystal 1 | 148.03 J/K/mol
285.99 K, Crystal 1 | 148.24 J/K/mol
286.83 K, Crystal 1 | 148.69 J/K/mol
287.67 K, Crystal 1 | 148.8 J/K/mol
288.49 K, Crystal 1 | 148.98 J/K/mol
289.33 K, Crystal 1 | 149.33 J/K/mol
290 K, Crystal 1 | 149.41 J/K/mol
290.17 K, Crystal 1 | 149.55 J/K/mol
291.01 K, Crystal 1 | 149.81 J/K/mol
291.85 K, Crystal 1 | 149.83 J/K/mol
292.69 K, Crystal 1 | 150.13 J/K/mol
293.53 K, Crystal 1 | 150.52 J/K/mol
294.38 K, Crystal 1 | 150.46 J/K/mol
295.22 K, Crystal 1 | 150.72 J/K/mol
296.07 K, Crystal 1 | 150.87 J/K/mol
296.92 K, Crystal 1 | 151.22 J/K/mol
297.77 K, Crystal 1 | 151.31 J/K/mol
298.15 K, Crystal 1 | 151.49 J/K/mol
298.61 K, Crystal 1 | 151.62 J/K/mol
299.46 K, Crystal 1 | 152.1 J/K/mol
300 K, Crystal 1 | 151.99 J/K/mol
300.74 K, Crystal 1 | 152.16 J/K/mol
302.38 K, Crystal 1 | 152.51 J/K/mol
304 K, Crystal 1 | 152.9 J/K/mol
305.63 K, Crystal 1 | 153.27 J/K/mol
307.25 K, Crystal 1 | 153.72 J/K/mol
308.87 K, Crystal 1 | 154.08 J/K/mol
310 K, Crystal 1 | 154.4 J/K/mol
310.45 K, Crystal 1 | 154.47 J/K/mol
312.03 K, Crystal 1 | 154.86 J/K/mol
313.62 K, Crystal 1 | 155.15 J/K/mol
315.2 K, Crystal 1 | 155.56 J/K/mol
316.77 K, Crystal 1 | 155.95 J/K/mol
318.35 K, Crystal 1 | 156.34 J/K/mol
319.87 K, Crystal 1 | 156.72 J/K/mol
320 K, Crystal 1 | 156.81 J/K/mol
321.41 K, Crystal 1 | 157.11 J/K/mol
322.95 K, Crystal 1 | 157.43 J/K/mol
324.49 K, Crystal 1 | 157.89 J/K/mol
325.96 K, Crystal 1 | 158.18 J/K/mol
327.48 K, Crystal 1 | 158.02 J/K/mol
328.97 K, Crystal 1 | 158.76 J/K/mol
330 K, Crystal 1 | 159.14 J/K/mol
330.46 K, Crystal 1 | 159.4 J/K/mol
331.95 K, Crystal 1 | 159.74 J/K/mol
333.42 K, Crystal 1 | 160.19 J/K/mol
334.89 K, Crystal 1 | 160.55 J/K/mol
